17 compounds from patent US20060281778A1, “Compounds for inhibiting KSP Kinesin activity” (Schering Corporation, priority 2005, published 2006) can be followed below.

pIC50: −log10 of the molar value. Read-outs that look alike come from different tables or passages of the source. A value given as a limit tells only on which side of the number the result lay.

The assay addresses T1, KSP motor domain (Homo sapiens, UniProt P52732).
T1 sequence (P52732 18-359 limits assumed): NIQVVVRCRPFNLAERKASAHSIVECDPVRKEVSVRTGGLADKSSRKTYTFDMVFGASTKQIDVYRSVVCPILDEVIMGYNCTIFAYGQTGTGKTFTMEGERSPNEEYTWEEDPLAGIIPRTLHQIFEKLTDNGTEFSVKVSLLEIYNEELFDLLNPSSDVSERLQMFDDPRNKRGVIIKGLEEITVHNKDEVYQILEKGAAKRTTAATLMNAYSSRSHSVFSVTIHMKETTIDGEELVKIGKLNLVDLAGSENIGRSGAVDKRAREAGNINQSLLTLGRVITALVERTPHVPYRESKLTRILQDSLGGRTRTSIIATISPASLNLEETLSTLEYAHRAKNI
The experiment in a line: KSP endpoint assay (microtubule-stimulated ATPase, Biomol green, OD620). The assay is classed as biochemical. Here is the method:
Serial dilutions of the compounds were prepared in a low binding, 96-well microtiter plate (Costar #3600) using 40% DMSO (Fisher BP231). The diluted compounds were added to a 384-well microtiter plate (Fisher 12-565-506). […] Following a 10 minute incubation, ATP (Sigma A-3377) (final concentration of ATP: 100 μM) was added to start the reaction. The final reaction volume was 25 μL. Final test compound concentration ranged from 50 μM to 5 nM, and 10 μM to 0.128 nM. The reaction was incubated for 1 hour at room temperature. The reaction was stopped by the addition of 50 μL Biomol green reagent (Biomol AK111) per well, and was allowed to incubate for 20 minutes at room temperature. The 384-well microtiter plate was then transferred to an absorbance reader (Molecular Devices SpectraMax plus) and a single measurement was taken at 620 nm.
For both endpoint and kinetic assays, the percent activity for each concentration is calculated using the following equation: Y=((X−background)/(positive control−background))*100
Y is the % activity and X is the measured reading (OD620 or rate)
For an IC50 determination, the % activity was fit by the following equation using a nonlinear curve-fitting program for sigmoidal dose-responses (variable slopes) (GraphPad Prizm). Y=Bottom+(Top−Bottom)/(1+10ˆ((Log EC50−X)*HillSlope))
All IC50 values are obtained from the end point assay.

[1] abbreviates: endpoint assay, 2.5-10 nM KSP motor domain, 55 μg/mL microtubules, 100 μM ATP, 1 hour at room temperature, read-out: IC50 (KSP inhibitory activity, endpoint assay).

As usually defined, the pIC50 is the IC50 on a negative log10 scale, so that one unit is a factor of ten. Take `CN(C)CCNC(=O)c1cc2cc3cc(C(C)(C)C)ccc3nc2s1` [Compound 7, 6-tert-butyl-thieno[2,3-b]quinoline-2-carboxylic acid (2-dimethylaminoethyl)-amide]: under setting [1], the pIC50 was less than 5.00. For the compound `CNCCNC(=O)c1cc2cc3cc(C(C)(C)C)ccc3nc2s1` [Compound 6, 6-tert-butyl-thieno[2,3-b]quinoline-2-carboxylic acid (2-methylaminoethyl)amide], under setting [1], the pIC50 is 6.54.

`CC(C)(C)c1ccc2nc3sc(C(N)=O)cc3cc2c1` [Compound 2, 6-tert-butyl-thieno[2,3-b]quinoline-2-carboxylic acid amide]: the pIC50 under setting [1] was 7.10. Still for that read-out and setting: in the case of `CC(C)(C)c1ccc2nc3sc(C(=O)NC4CNC4=O)cc3cc2c1` (centres unmarked) [Compound 11, 6-tert-butyl-thieno[2,3-b]quinoline-2-carboxylic acid (2-oxo-azetidin-3-yl)amide] it was 5.08; in that of `CC(C)(C)c1ccc2nc3sc(C(=O)N[C@H](CN)c4cccc(NC(=O)c5cnccn5)c4)cc3cc2c1` [Compound 15, 6-tert-butyl-thieno[2,3-b]quinoline-2-carboxylic acid (2-amino-1(S)-{3-[(pyrazine-2-carbonyl)-amino]-phenyl}-ethyl)-amide], 7.52; in that of `CC(C)(C)c1ccc2nc3sc(C(=O)N[C@H](CN)c4cccc(N)c4)cc3cc2c1` [Compound 14, 6-tert-butyl-thieno[2,3-b]quinoline-2-carboxylic acid [2(S)-amino-1-(3-amino-phenyl)-ethyl]-amide], 7.60. `CC(C)(C)c1ccc2nc3sc(C(=O)O)cc3cc2c1` [Compound 3, 6-tert-butyl-thieno[2,3-b]quinoline-2-carboxylic acid]: under setting [1], the pIC50 is less than 5.00. Same read-out and setting: in the case of `CC(C)(C)c1ccc2nc3sc(C(=O)N[C@H](CN)c4ccccc4)cc3cc2c1` [Compound 13, 6-tert-butyl-thieno[2,3-b]quinoline-2-carboxylic acid (2-amino-1-(S)-phenyl-ethyl)-amide] it was 7.46. Same read-out and setting: next, `CC(C)(C)OC(=O)NCCNC(=O)c1cc2cc3cc(C(C)(C)C)ccc3nc2s1` [Compound 4, {2-[(6-tert-Butyl-thieno[2,3-b]quinoline-2-carbonyl)amino]ethyl}carbamic acid tert-butyl ester]: less than 5.00; `CC(C)(C)c1ccc2nc3sc(C(=O)N[C@H](CN)c4cccc(NC(=O)c5nccnc5N)c4)cc3cc2c1` [Compound 16]: 7.59; `CC(C)(C)c1ccc2nc3sc(C(=O)NCC#N)cc3cc2c1` [Compound 9, 6-tert-butyl-thieno[2,3-b]quinoline-2-carboxylic acid cyanomethylamide]: 6.22. Take `COc1ccc(CN2CC(NC(=O)c3cc4cc5cc(C(C)(C)C)ccc5nc4s3)C2=O)c(OC)c1` (centres unmarked) [Compound 10, 6-tert-butyl-thieno[2,3-b]quinoline-2-carboxylic acid [1-(2,4-dimethoxybenzyl)-2-oxo-azetidin-3-yl]amide]: the pIC50 under setting [1] was less than 5.00. Compound `C[Si](C)(C)c1ccc2nc3sc(C(N)=O)cc3cc2c1` [Compound 12, 6-(trimethylsilyl)thieno[2,3-b]quinoline-2-carboxamide] showed a negative logarithm of the IC50 (pIC50) of 7.42. As to `CC(C)(C)c1ccc2nc3sc(C(=O)NCCC#N)cc3cc2c1` [Compound 8, 6-tert-Butyl-thieno[2,3-b]quinoline-2-carboxylic acid (2-cyanoethyl)amide], the negative logarithm of the IC50 (pIC50) under setting [1] is 5.05. Consider `CC(C)(C)c1ccc2nc3sc(C(=O)NCCN)cc3cc2c1` [Compound 5, 6-tert-butyl-thieno[2,3-b]quinoline-2-carboxylic acid (2-aminoethyl)amide], for which, under setting [1], the pIC50 is 7.15.

`CC(C)(C)c1ccc2nc3sc(C#N)cc3cc2c1` [Compound 1, 6-tert-butyl-thieno[2,3-b]quinoline-2-carbonitrile]: the pIC50 under setting [1] is 6.80.

Turning to `Cc1cc(C(=O)Nc2cccc([C@@H](CN)NC(=O)c3cc4cc5cc(C(C)(C)C)ccc5nc4s3)c2)no1` [Compound 17, 6-tert-butyl-thieno[2,3-b]quinoline-2-carboxylic acid (2-amino-1(S)-{3-[(5-methyl-isoxazole-3-carbonyl)-amino]-phenyl}-ethyl)-amide], the pIC50 under setting [1] was 7.44.
